Experimental data reported in US5208244A, “Method of selectively inhibiting calcium-independent myocardial phospholipase A2” (priority 1990, dated 1993).
Structures can show the parent of a compound that is named as a salt. Where two headings read alike, the source gives them in different places.

How the values were obtained:
sheep platelet PLA2 = assay: Calcium-dependent sheep platelet PLA2 assay; type: biochemical; details: 1 μM CaCl2, pH 7.2; > : inhibition observed but not enough for an IC50 at highest concentration
From the text: (§1) Several other PLA2 assays were utilized in order to gain some measure of the selectivity of the inhibitors of calcium-independent myocardial PLA2. Specifically, three other calcium-dependent mammalian PLA2 assays are used: (1) sheep platelet PLA2, (2) human synovial fluid PLA2, and (3) porcine pancreatic PLA2. The PLA2 enzymes represent different groups of PLA2 enzymes. Myocardial PLA2, platelet PLA2, and secreted PLA2 enzymes (human synovial fluid PLA2 and porcine pancreatic PLA2) have very different calcium requirements, which may be typical of their respective classes.
Homogeneous sheep platelet cytosolic PLA2 was prepared as described by Loeb, L. A., and Gross, R. W. J. Biol. Chem. 261, 10467-10470 (1986). The purified calcium-dependent platelet PLA2 was preincubated in 70 mM Tris-Cl (pH 7.2) containing 1 μM CaCl2 and test compound for 5 min at 25° C. Catalysis was initiated by injection 1 μM radiolabeled substrate (1-O-(Z)-(1'-hexadecenyl)-2-[9,10-^3 H]-oleoyl-3-phosphorylcholine). After a 10 min incubation period at 37° C., reaction products were extracted with n-butanol, separated by thin layer chromatography, and quantified by scintillation spectrometry. PLA2 activity was compared in the presence and absence of test compound and the IC50 was determined.
(§2) Two greater than symbols (>>) indicate little or no inhibition at the highest concentration used. Activation of an enzyme is indicated by a +X% which gave that activation of X%.

HL-60 cells = assay: HL-60 cell assay for LTB4 and PGE2 production (calcium ionophore A23187 induced); type: cell-based; details: for IC50: Homo sapiens, HL-60, A23187 5×10^-6 M, > : inhibition but not enough for an IC50
Procedure: An additional whole cell assay was also performed. In this assay, HL-60 cells are induced with the calcium ionophore A23187 in the presence of varying amounts of inhibitor, and the amounts of the prostaglandin E2 (PGE2) and leukotriene B4 (LTB4) which form are measured. Calcium ionophore A23187 activates a calcium-dependent PLA2 which leads to the enhanced production of the arachidonic acid metabolites PGE2 and LTB4. The concentrations of inhibitor which decrease the production of PGE2 and LTB4 by 50% relative to controls are expressed as IC50 values.
HL-60 Cell Assay for LTB4 and PGE2 Production
HL-60 cells grown exponentially in culture were induced to differentiate into granulocytes by a four day incubation with 0.8% (v/v) N,N-dimethylformamide. Prior to assay, differentiated HL-60 cells were washed once with Hanks' balanced salt solution containing 0.35 mg/mL sodium bicarbonate and 10 mM Hepes, pH 7.3 (HBSS) and resuspended in HBSS at a 3×10^6 cells/mL concentration. DMSO or test compounds solubilized in DMSO were added at 1:100 dilution to 1.0 mL HL-60 cell suspensions (3×10^6 cells) and preincubated at 37° C. for 10 min in a shaking water bath. After an additional 5 min incubation with 5×10^-6 M calcium ionophore, A23187 (Calbiochem, La Jolla, Calif.), the cells were centrifuged at 12,800×g for 15 seconds and the supernatant (0.8 mL) removed and stored at -20° C. for LTB4 and PGE2 quantitation by radioimmunoassay (kits obtained from Amersham, United Kingdom and NEN Research Products, N. Billerica, Mass.).
as §2

porcine pancreatic PLA2 = molecular target: T1, porcine pancreatic PLA2 (Sus scrofa, UniProt P00592); assay: Porcine pancreatic PLA2 assay ([14C]-oleate labelled E. coli); type: biochemical; details: 10 mM CaCl2, pH 8.0; > : inhibition but not enough for an IC50; >> : little or no inhibition at highest concentration; read-out: Porcine Pancr. PLA2 IC50
T1 construct: purchased Sigma (St. Louis); host or cells: porcine pancreas
T1 sequence (P00592 23-146): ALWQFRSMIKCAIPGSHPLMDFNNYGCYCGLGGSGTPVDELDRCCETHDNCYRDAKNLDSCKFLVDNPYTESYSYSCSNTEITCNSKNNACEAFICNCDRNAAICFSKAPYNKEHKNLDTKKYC
From the text: as §1
Purified porcine pancreatic PLA2 was obtained from Sigma (St. Louis, Miss.). PLA2 activity was measured by using [^14 C]-oleate labelled autoclaved E. coli as described by Franson, Patriarca and Elsbach (referenced above). The assay was performed at 37° C. for 5 min in a final volume of 100 μL Tris-HCl buffer (100
mM, pH 8.0) containing 1 mM EDTA, 10 mM CaCl2, and E. coli (containing 10 nmol phospholipid). The test compound or control vehicle was preincubated with PLA2 for 5 min, followed by adding E. coli to initiate the reaction. The reaction was terminated by adding 2 mL tetrahydrofuran. The reaction product, [^14 C]-oleic acid, was isolated using a 1 mL Bond Elute--NH2 column and counted by liquid scintillation spectrometry.
as §2

[1] = molecular target: T2, human synovial fluid PLA2 (Homo sapiens, UniProt P14555); assay: Human synovial fluid PLA2 assay ([14C]-oleate labelled E. coli); type: biochemical; details: 5 mM CaCl2, pH 7.0; > : inhibition but not enough for an IC50; >> : little or no inhibition at highest concentration; read-out: HSF PLA2 IC50
T2 construct: Purified human synovial fluid PLA2; from tissue; host or cells: human synovial fluid; obtained from R. C; Franson (Medical College of Virginia)
T2 sequence (P14555 21-144): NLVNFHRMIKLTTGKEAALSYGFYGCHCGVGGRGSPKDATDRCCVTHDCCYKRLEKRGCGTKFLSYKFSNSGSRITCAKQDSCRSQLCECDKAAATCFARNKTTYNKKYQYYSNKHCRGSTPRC
From the text: as §1
Purified human synovial fluid PLA2 (purified by the procedure of Fawzy, A. A. and Franson, R. C. Biophys. J. 49, 533a [1986]) was obtained from R. C. Franson (Medical College of Virginia, Richmond, Va.). PLA2 activity was measured by using [^14 C]-oleate labelled autoclaved E. coli as substrate as described by Franson, R. C., Patriarca, P., and Elsbach, P. J. Lipid Res. 15, 380-388 (1974). The assay was performed at 37° C. for 30 min in a final volume of 100 μL 50 mM Hepes buffer (pH 7.0) containing 150 mM NaCl, 5 mM CaCl2, and E. coli cells (corresponding to 10 nmol phospholipid). The test compound or control vehicle was preincubated with PLA2 for 5 min, followed by adding E. coli to initiate the reaction. The reaction was terminated by adding 2 mL tetrahydrofuran. The reaction product, [^14 C]-oleic acid, was isolated using a 1 mL Bond Elute--NH2 column and counted by liquid scintillation spectrometry.
as §2

[2] = test system: calcium-independent canine myocardial PLA2; assay: Inhibition of purified calcium-independent canine myocardial PLA2 (radiolabeled fatty acid release); type: biochemical; details: for IC50: purified enzyme, 6.4 mM EGTA, pH 7.0, 5 min preincubation 25° C., 5 min at 37° C., read-out: Canine Heart PLA2 IC50; for selectivity for calcium-independent canine myocardial PLA2 over the calcium-dependent PLA2 enzymes: versus calcium-dependent PLA2 enzymes
Procedure: This assay consists of determining the amount of radiolabeled fatty acid which is liberated from the radiolabeled phospholipid substrate by purified calcium-independent canine myocardial PLA2 in the presence of varying concentrations of the inhibitor. […] This concentration is defined as the IC50.
Appropriate controls were performed in the absence of test compound. Catalysis was initiated by injection of 1 μM radiolabeled substrate (1-O-(Z)-(1'-hexadecenyl)-2-[9,10-^3 H]-oleoyl-3-phosphorylcholine). After a 5 min incubation at 37° C., reaction products were extracted with n-butanol, separated by thin layer chromatography, and quantified by scintillation spectrometry.
as §2

rat neonatal myocytes = details: cited from earlier work
[3] = LTB4 production, read-out: HL-60 LTB4 IC50
[4] = PGE2 production, >> : little or no inhibition at highest concentration, read-out: HL-60 PGE2 IC50

Structure (SMILES) | IC50 (sheep platelet PLA2) [µM] | IC50 (HL-60 cells; [3]) [µM] | IC50 (HL-60 cells; [4]) [µM] | IC50 (porcine pancreatic PLA2) [µM] | IC50 [1] [µM] | potency against canine myocardial PLA2 (in words) [2] | IC50 [2] [µM] | also measured
O=C1O/C(=C/I)CCC1c1cccc2ccccc12 (centres unmarked) [Example 1, Tetrahydro-(E)-6-(iodomethylene)-3-(1-naphthalenyl)-2H-pyran-2-one] | 100 | 11.7 | > 100 | > 100 | > 100 | most potent compound known against calcium-independent canine myocardial PLA2 | 0.031 | HL-60 PGE2 activation (+X%) (HL-60 cells; PGE2 production): +300%; selectivity for calcium-independent canine myocardial PLA2 over the calcium-dependent PLA2 enzymes [2]: over 3200 -fold
C#C/C=C1\CCC(c2cccc3ccccc23)C(=O)O1 (centres unmarked) [Example 2, Tetrahydro-3-(1-Naphthalenyl)-(E)-6-(prop-2-ynylidene)-2H-pyran-2-one] | 38 | > 10 | > 10 | 17 | 53 |  |  | 
O=C1O/C(=C/Br)CCC1c1cccc2ccccc12 (centres unmarked) [Example 3, (E)-6-(bromomethylene)tetrahydro-3-(1-naphthalenyl)-2H-pyran-2-one] | 72 | > 10 | > 10 | > 100 | > 100 | extremely potent inhibitors of canine myocardial PLA2 | 0.14 | HL-60 PGE2 activation (+X%) (HL-60 cells; PGE2 production): +91%; selectivity for calcium-independent canine myocardial PLA2 over the calcium-dependent PLA2 enzymes [2]: over 500 -fold
O=C1O/C(=C\I)CCC1c1cccc2ccccc12 (centres unmarked) [Example 4, Tetrahydro-(Z)-6-(iodomethylene)-3-(1-naphthalenyl)-2H-pyran-2-one] |  |  |  |  |  | potency drops off by almost an order of magnitude | 0.19 | 
O=C1O/C(=C/Br)CCC1c1ccccc1 (centres unmarked) [Example 5, (E)-6-(Bromomethylene)tetrahydro-3-phenyl-2H-pyran-2-one] | > 100 | 1.1 | > 100 | > 100 | > 100 |  | 0.25 | HL-60 PGE2 activation (+X%) (HL-60 cells; PGE2 production): +63%; selectivity for calcium-independent canine myocardial PLA2 over the calcium-dependent PLA2 enzymes [2]: over 400 -fold
O=C1O/C(=C/Br)CC1c1cccc2ccccc12 (centres unmarked) [Example 6, (E)-5-(Bromomethylene)tetrahydro-3-(1-naphthalenyl)-2(3H)-furanone] |  |  |  |  |  |  | 1.7 | 
C=C1CCC(c2cccc3ccccc23)C(=O)O1 (centres unmarked) [Example 7, Tetrahydro-6-methylene-3-(1-naphthalenyl)-2H-pyran-2-one] |  |  |  |  |  | loss of more than two orders of magnitude in potency | 22 | 
O=C1O/C(=C/Br)CCC1Oc1ccccc1 (centres unmarked) [Example 8, (E)-6-(Bromomethylene)tetrahydro-3-phenoxy-2H-pyran-2-one] |  |  |  |  |  |  | 21 | 
O=C1CCC/C(=C\Br)O1 [Example 9, (E)-6-(Bromomethylene)tetrahydro-2H-pyran-2-one] |  |  |  |  |  |  |  | Canine Heart PLA2 inhibition at 100 μM ([2]; 100 μM, printed in the IC50 column with footnote 4): 28%
O=C1O/C(=C/Br)CCC1c1cccnc1 (centres unmarked) [Example 10, (E)-6-(Bromomethylene)tetrahydro-3-(3-pyridyl)-2H-pyran-2-one Hydrochloride] |  |  |  |  |  |  | 75 | 
COC1=CCC2=C(CCC3C2CC[C@@]2(C)C3CC[C@@H]2N(C)CCCN(C)C)C1 (some centres unmarked) [U26,384] |  |  |  |  |  |  |  | release of arachidonic acid, phospholipid degradation, sarcolemmal membrane defects and release of creatine kinase (rat neonatal myocytes; induced by iodoacetate): prevented the release of arachidonic acid, phospholipid degradation, sarcolemmal membrane defects and the release of creatine kinase
O=C(O)CI [iodoacetate] |  |  |  |  |  |  |  | ATP levels, release of arachidonic acid and morphological alterations of myocytes (rat neonatal myocytes; rat neonatal myocytes): lowers the levels of ATP which results in the release of arachidonic acid and morphological alterations of the myocytes
